The results in this text go back to patent US20260132103A1, “Bumetanide Derivatives for the Therapy of Stroke and Other Neurological Diseases/Disorders Involving NKCCs” (University of Pittsburgh - Of the Commonwealth System of …, priority 2018, published 2026).

For series [1], the system named is transient focal cerebral ischemia (tMCAO) in mice. The series can be described thus: Brain infarct volume and swelling after transient focal cerebral ischemia (tMCAO). Format: in vivo, mouse. The conditions noted are these: 24 h reperfusion, i.p. Here is the method: (§1) FIGS. 1A-1C: Efficacy of NKCC1 inhibitors in reducing ischemic infarction, cerebral edema, and the post-stroke survival in normotensive mice after tMCAO (see Example 3). (1A) Experimental protocol and data collection. Transient middle cerebral artery occlusion (tMCAO) was induced in normal C57/b6 mice. DMSO, BMT (10 mg/kg body weight), STS5 (13 mg/kg) or STS66 (12 mg/kg) was administered via intraperitoneal injection (i.p.) as described in method. (1 B) Representative TTC staining images in normotensive mice at 24 h reperfusion with quantitative analysis of infarct volume. Data are mean±SD, n=6-13 (male, n=3-9; female, n=3-4, *p<0.05). Scale: 5 mm. (1C) Percentage hemisphere swelling at 24 h reperfusion. Data are mean±SD, n=6-13, *p<0.05. (1D) Body weight change during 1-14 days after tMCAO. Data are mean±SD, n=5-9 (male, n=4; female, n=2, *p<0.05). (1E) Survival curve during 1-14 day after tMCAO. Data are mean±SD, n=5-9 (male, n=3-7; female, n=2, *p<0.05).
(§2) Transient focal cerebral ischemia was induced in mice by intraluminal occlusion of the left middle cerebral artery (MCA) for 50 min as described previously (Chen H et al., 2005). Mice were anesthetized with 3% isoflurane in 70%: 30% N2O/O2 until they were unresponsive to the tail pinch test. Animals were then fitted with a nose cone blowing 1.5% isoflurane for anesthesia maintenance. The left common carotid artery was exposed and the occipital artery branches of the external carotid artery were isolated and coagulated. The internal carotid artery was isolated and the extracranial branch was dissected and ligated. A rubber silicon-coated monofilament suture (6-0) was introduced into the internal carotid artery lumen and gently advanced approximately 8-9 mm to block the MCA blood flow for 50 min. The rectal temperature was maintained at 37.0±0.5° C. during surgery through a temperature-controlled heating pad. Achievement of ischemia was confirmed by monitoring regional cerebral blood flow (rCBF) with laser speckle contrast imager (Pericam). For reperfusion, the suture was withdrawn after the MCAO. The incision was closed and the mouse recovered under a heating lamp to maintain the core temperature (36.0-37.0° C.) during the 30-60 min recovery period. After recovery, animals were returned to their cages with free access to food and water.
(§3) Vehicle: DMSO (2 ml/kg body weight/day), the NKCC1 inhibitor bumetanide (BMT, 10 mg/kg body weight/day in DMSO), bumetanide's prodrug STS5 (13 mg/kg body weight/day in DMSO), or the novel NKCC1 inhibitor STS66 according to the invention (12 mg/kg body weight/day in DMSO) was administered via intraperitoneal injection (i.p). The initial half dose of the drugs (BMT, STS5, STS66) was given at 3 h after the onset of reperfusion and the second half dose at 8 h reperfusion in the tMCAO model.
At 24 h post-reperfusion, mice were anesthetized with 5% isoflurane and then decapitated. Coronal brain slices (2 mm thickness) were stained with 1% 2,3,5-triphenyltetrazolium chloridemonohydrate (TTC) for 20-30 min and brain slices were scanned (Begum G et al., 2015). Ischemic lesions were traced in each slice in a blinded manner, and the total volume of infarction was calculated with correction for edema, as described by Swanson et al., 1990 using ImageJ software. Infarct areas were summed across all slices and multiplied by slice thickness to yield total infarct volume (mm^3). Brain swelling was determined with the following formula. For tMCAO: swelling (% contralateral hemispheric volume)=[(ipsilateral hemispheric volume)−(contralateral hemispheric volume)]/(contralateral hemispheric volume)×100, as described before (Guo Q G et al., 2009; Sunghee Cho et al., 2005).

Series [2] has the same test system. As to the kind of experiment: Body weight and survival 1-14 days after tMCAO. The series is classed as in vivo, mouse. The procedure: as §1, §2, §3

As for `CCCCNc1cc(C(=O)OCCN(C)C)cc(S(N)(=O)=O)c1Oc1ccccc1` [STS5], the “infarct volume in female mice” value in series [1] (female mice only, STS5 13, STS66 12 mg/kg/day) came out at 46.9±5.0 mm^3. Moreover, in series [1] (normotensive C57BL/6j mice, half dose at 3 h and 8 h reperfusion, BMT 10, STS5 13, STS66 12 mg/kg/day, mean±SD), the “hemispheric edema (hemisphere swelling)” value worked out at 12.6±4.5%. The infarct volume in series [1] (normotensive C57BL/6j mice, male and female combined, half dose at 3 h and 8 h reperfusion, BMT 10, STS5 13, STS66 12 mg/kg/day, mean±SD) is 49.5±20.6 mm^3. In addition, the body weight changes result in series [2] (1-14 days after tMCAO, versus DMSO Veh control) is reported as “no differences in the body weight changes”. In series [2] (between 1-14 days post tMCAO, BMT 10, STS5 13, STS66 12 mg/kg/day i.p.), the mortality rate is on record as approximately 66.7%.
